Laboratory results reported in US11629135B2 (JUBILANT PRODEL LLC, priority 2017, dated 2023).

Assays:
Assay type in all cases: in vitro ADME
CYP3A4 = target: T1, CYP3A4 (Homo sapiens, UniProt P08684); experiment: CYP inhibition in human liver microsomes (CYP3A4); conditions: hydroxylation of midazolam, read-out: predicted IC50, CYP 3A4
T1 construct: assessed in human liver microsomes (procured from GIBCO Invitrogen); tissue GIBCO Invitrogen; host or cells: human liver microsomes
Protocol: (§1) CYP inhibition potential of compound was assessed in human liver microsomes (procured from GIBCO Invitrogen) against CYP3A4, 2D6, 2C9, 2C19 and 1A2 in the following sequential steps. Standard reaction mixture (final volume 300 μL) contained […] potassium phosphate buffer (pH 7.4), protein (0.1, 0.25, 0.5, 0.5 and 0.5 mg/mL concentration for CYP3A4, 2D6, 2C9 2C19 and 1A2 respectively) and compound (at eight different concentration levels ranging from […], added as 0.9 μL DMSO solution with a final DMSO concentration of […]). The mixtures were pre-incubated at 37±1° C. for 5 min. The reaction (in duplicate) was initiated by addition of 30 μL of NADPH (10 mM). Reaction was terminated at 10 min by adding 300 μL of acetonitrile. The activity of liver microsomes was confirmed with positive controls i.e., monitoring the hydroxylation of midazolam for CYP 3A4, hydroxylation of bufuralol for CYP 2D6, hydroxylation of diclofenac for CYP 2C9, hydroxylation of omeprazole for CYP2C19 and O-Deethylation for CYP 1A2. The reaction mixtures (obtained from the above studies) were extracted, processed and analyzed by LC-MS [Shimadzu SIL LC series (Kyoto, Japan) was coupled to an API-4000 Mass Spectrometer (MDS Sciex, Toronto, Canada)].

[1] = Metabolic stability in liver microsomes (human); conditions: human liver microsomes 0.5 mg/mL, compound 1 μM, NADPH, up to 30 min
Protocol: (§2) Metabolic Stability in Liver Microsomes
(§3) Procedure: Potassium phosphate buffer (66.7 mM, pH 7.4) containing mouse or rat or dog or monkey or human liver microsomes (0.5 mg/mL) was pre-incubated separately with compound (1 μM) and positive control (verapamil, 1 μM) in a 37° C. water bath for 5 min. The reactions were initiated by adding 20 μL of 10 mM NADPH. Reactions without NADPH (0 and 30 min) were also incubated to rule out non-NADPH metabolism or chemical instability in the incubation buffer. All reactions were terminated using 200 μL of ice-cold acetonitrile containing internal standard at 0, 5, 15 and 30 min. The vials were centrifuged at 3000 rpm for 15 min. The reaction mixtures (obtained from the above studies) were extracted, processed and analyzed by LC-MS [Shimadzu SIL LC series (Kyoto, Japan) was coupled to an API-4000 Mass Spectrometer (MDS Sciex, Toronto, Canada)] to monitor the disappearance of compound.

CYP 2D6 = target: T2, CYP 2D6 (Homo sapiens, UniProt P10635); experiment: CYP inhibition in human liver microsomes (CYP2D6); conditions: hydroxylation of bufuralol, read-out: predicted IC50, CYP 2D6
T2 construct: assessed in human liver microsomes (procured from GIBCO Invitrogen); tissue GIBCO Invitrogen; host or cells: human liver microsomes
T2 sequence (P10635 whole entry): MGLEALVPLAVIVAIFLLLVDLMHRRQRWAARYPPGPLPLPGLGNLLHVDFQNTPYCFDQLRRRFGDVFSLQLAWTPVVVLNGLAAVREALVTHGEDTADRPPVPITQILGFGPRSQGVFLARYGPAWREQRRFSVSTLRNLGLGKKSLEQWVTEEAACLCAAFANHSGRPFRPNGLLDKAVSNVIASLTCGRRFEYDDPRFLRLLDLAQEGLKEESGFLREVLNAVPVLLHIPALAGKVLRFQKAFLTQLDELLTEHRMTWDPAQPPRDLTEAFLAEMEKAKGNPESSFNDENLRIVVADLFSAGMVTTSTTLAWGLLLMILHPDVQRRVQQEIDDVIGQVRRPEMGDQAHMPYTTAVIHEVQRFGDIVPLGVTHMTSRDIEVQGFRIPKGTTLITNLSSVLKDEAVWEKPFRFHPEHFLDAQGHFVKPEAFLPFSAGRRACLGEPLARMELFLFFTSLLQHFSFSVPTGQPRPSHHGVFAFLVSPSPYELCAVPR
Protocol: as §1

[2] = Metabolic stability in liver microsomes (mouse); conditions: mice liver microsomes 0.5 mg/mL, compound 1 μM, NADPH, up to 30 min
Protocol: as §2, §3

T1 sequence (P08684 whole entry): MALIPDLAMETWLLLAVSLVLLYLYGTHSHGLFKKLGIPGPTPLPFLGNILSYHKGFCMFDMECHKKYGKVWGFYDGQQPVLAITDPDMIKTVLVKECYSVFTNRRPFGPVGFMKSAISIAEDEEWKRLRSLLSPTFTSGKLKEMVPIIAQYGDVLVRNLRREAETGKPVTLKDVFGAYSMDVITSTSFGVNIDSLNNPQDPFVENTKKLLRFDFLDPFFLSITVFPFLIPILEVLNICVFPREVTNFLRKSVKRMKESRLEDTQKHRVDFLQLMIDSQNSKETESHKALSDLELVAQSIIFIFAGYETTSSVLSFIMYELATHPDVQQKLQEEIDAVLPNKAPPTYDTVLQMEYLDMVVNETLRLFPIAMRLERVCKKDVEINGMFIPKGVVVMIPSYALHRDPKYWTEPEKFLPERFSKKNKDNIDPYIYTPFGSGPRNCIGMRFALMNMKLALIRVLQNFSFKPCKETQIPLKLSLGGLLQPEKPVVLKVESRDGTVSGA

IC50 (CYP3A4): > 10 µM
Metabolic stability in liver microsomes [1]: > 80%
IC50 (CYP 2D6): > 10 µM
Metabolic stability in liver microsomes [2]: > 80%
SMILES: COc1nc(OCc2cccc(-c3ccccc3)c2C)nc(OC)c1CN1CCCC[C@H]1C(=O)O [Compound 45, (S)-1-((4,6-dimethoxy-2-((2-methyl-[1,1′-biphenyl]-3-yl)methoxy)pyrimidin-5-yl)methyl)piperidine-2-carboxylic acid]
